# From US12492181B2, “Gem-disubstituted piperidine melanocortin subtype-2 receptor (MC2R) antagonists and uses thereof” (Crinetics Pharmaceuticals, Inc., priority 2019, dated 2025)
# Molecular target: T1, hMC2 receptor (crude hMC2R membranes from CRE-bla-CHO-K1 cells stably expressing hMC2 receptor and hMRAP accessory protein) (Homo sapiens, UniProt Q01718)
# T1 construct: crude membrane fractions
# Assay: hMC2 membrane binding assay ([125I]ACTH (1-39) Tyr23, SPA)
# Details: displacement of 0.2 nM [125I]ACTH (1-39) Tyr23 from hMC2R membranes, 1.5 hours at room temperature; read-out: MC2R binding potency
# Summary of the method: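 Ki values come from non-linear regression of SPA scintillation counts, with compounds displacing [125I]ACTH(1-39) Tyr23. Membranes come from CRE-bla-CHO-K1 cells stably expressing hMC2 receptor together with hMRAP. They are preincubated with WGA-coated PVT SPA beads in 50 mM HEPES pH 7.4 with 0.20% BSA, Mg2+, Ca2+ and protease inhibitors.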
# T1 sequence (Q01718 whole entry): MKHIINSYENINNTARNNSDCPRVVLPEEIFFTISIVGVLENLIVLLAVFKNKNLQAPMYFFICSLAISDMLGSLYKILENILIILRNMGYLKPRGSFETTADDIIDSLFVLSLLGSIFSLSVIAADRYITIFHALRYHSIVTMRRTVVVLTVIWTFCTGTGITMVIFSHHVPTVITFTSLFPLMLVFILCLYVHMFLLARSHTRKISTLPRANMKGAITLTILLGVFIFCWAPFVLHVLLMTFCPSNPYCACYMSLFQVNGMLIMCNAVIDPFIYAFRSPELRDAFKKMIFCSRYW
# T1 sequence (Q8TCY5 whole entry partner): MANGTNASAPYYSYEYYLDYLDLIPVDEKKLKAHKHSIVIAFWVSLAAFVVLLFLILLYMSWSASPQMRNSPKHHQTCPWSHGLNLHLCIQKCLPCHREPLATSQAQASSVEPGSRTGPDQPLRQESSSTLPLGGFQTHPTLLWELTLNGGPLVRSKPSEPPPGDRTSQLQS
row,Ki,Structure (SMILES)
1,< 10 nM,"CNCCNC(=O)C1(c2ccc(-c3ccccc3OC)nc2)CCN(c2ccc(C(F)(F)F)cc2C#N)CC1 [Compound 1-214, 1-[2-cyano-4-(trifluoromethyl)phenyl]-4-[6-(2-methoxyphenyl)pyridin-3-yl]-N-[2-(methylamino)ethyl]piperidine-4-carboxamide]"
2,< 10 nM,"COc1ccccc1-c1ncc(C2(NC(=O)O[C@H]3CCN(C)C3)CCN(c3ccc(C(F)(F)F)cc3C#N)CC2)cc1F [Compound 2-49, (3S)-1-methylpyrrolidin-3-yl N-{1-[2-cyano-4-(trifluoromethyl)phenyl]-4-[5-fluoro-6-(2-methoxyphenyl)pyridin-3-yl]piperidin-4-yl}carbamate]"
3,< 10 nM,"COc1ncccc1-c1ccc(C2(C(=O)N[C@H]3CCN(C)C3)CCN(c3ccc(C(F)(F)F)cc3C#N)CC2)cn1 [Compound 1-179, 1-[2-cyano-4-(trifluoromethyl)phenyl]-4-{2′-methoxy-[2,3′-bipyridin]-5-yl}-N-[(3S)-1-methylpyrrolidin-3-yl]piperidine-4-carboxamide]"
4,< 10 nM,"CCOc1ncccc1-c1ccc(C2(NC(=O)CCNC)CCN(c3ccc(C(F)(F)F)cc3C#N)CC2)cn1 [Compound 2-5, N-{1-[2-cyano-4-(trifluoromethyl)phenyl]-4-{2′-ethoxy-[2,3′-bipyridin]-5-yl}piperidin-4-yl}-3-(methylamino)propanamide]"
5,< 10 nM,"CNCCNC(=O)C1(c2ccc(-c3ccccc3OC)nc2)CCN(c2ccc(C(F)(F)F)cc2Cl)CC1 [Compound 1-257, 1-[2-chloro-4-(trifluoromethyl)phenyl]-4-[6-(2-methoxyphenyl)pyridin-3-yl]-N-[2-(methylamino)ethyl]piperidine-4-carboxamide]"
6,< 10 nM,"COc1ccccc1-c1ncc(C2(NC(=O)N[C@H]3CCN(C)C3)CCN(c3ccc(C(F)(F)F)cc3C#N)CC2)cc1F [Compound 2-51, 1-{1-[2-cyano-4-(trifluoromethyl)phenyl]-4-[5-fluoro-6-(2-methoxyphenyl)pyridin-3-yl]piperidin-4-yl}-3-[(3S)-1-methylpyrrolidin-3-yl]urea]"
7,< 10 nM,"Cc1ccc(F)cc1-c1ccc(C2(C(=O)N[C@@H]3CCN(C)C3)CCN(c3ccc(C(F)(F)F)cc3C#N)CC2)cn1 [Compound 1-99, 1-[2-cyano-4-(trifluoromethyl)phenyl]-4-[6-(5-fluoro-2-methylphenyl)pyridin-3-yl]-N-[(3R)-1-methylpyrrolidin-3-yl]piperidine-4-carboxamide]"
8,< 10 nM,"CCOc1ncccc1-c1ccc(C2(C(=O)N[C@@H]3CCN(C)C3)CCN(c3ccc(C(F)(F)F)nc3C#N)CC2)cc1 [Compound 1-23, 1-[2-cyano-6-(trifluoromethyl)pyridin-3-yl]-4-[4-(2-ethoxypyridin-3-yl)phenyl]-N-[(3R)-1-methylpyrrolidin-3-yl]piperidine-4-carboxamide]"
9,< 10 nM,"COc1ccccc1-c1ccc(C2(C(=O)N[C@H]3CCN(C)C3)CCN(c3ccc(C(F)(F)F)cc3Cl)CC2)cn1 [Compound 1-144, 1-[2-chloro-4-(trifluoromethyl)phenyl]-4-[6-(2-methoxyphenyl)pyridin-3-yl]-N-[(3S)-1-methylpyrrolidin-3-yl]piperidine-4-carboxamide]"
10,< 10 nM,"CNC[C@H](C)NC(=O)C1(c2cnc(-c3cccn3C)c(F)c2)CCN(c2ccc(C(F)(F)F)cc2C#N)CC1 [Compound 1-326, 1-[2-cyano-4-(trifluoromethyl)phenyl]-4-[5-fluoro-6-(1-methyl-1H-pyrrol-2-yl)pyridin-3-yl]-N-[(2S)-1-(methylamino)propan-2-yl]piperidine-4-carboxamide]"
11,< 10 nM,"CNCCNC(=O)C1(c2ccc(-c3cccn3C)nc2)CCN(c2ccc(C(F)(F)F)cc2F)CC1 [Compound 1-281, 1-[2-fluoro-4-(trifluoromethyl)phenyl]-4-[6-(1-methyl-1H-pyrrol-2-yl)pyridin-3-yl]-N-[2-(methylamino)ethyl]piperidine-4-carboxamide]"
12,10 to 100 nM,"CNCCNC(=O)C1(c2cnc(-c3ccccc3OC)c(F)c2)CCN(c2ccc(C(F)(F)F)cc2Cl)CC1 [Compound 1-294, 1-[2-chloro-4-(trifluoromethyl)phenyl]-4-[5-fluoro-6-(2-methoxyphenyl)pyridin-3-yl]-N-[2-(methylamino)ethyl]piperidine-4-carboxamide]"
13,< 10 nM,"COc1ccccc1-c1ccc(C2(C(=O)N[C@H]3CCN(C)C3)CCN(c3ccc(Cl)cc3C#N)CC2)cn1 [Compound 1-91, 1-(4-chloro-2-cyanophenyl)-4-[6-(2-methoxyphenyl)pyridin-3-yl]-N-[(3S)-1-methylpyrrolidin-3-yl]piperidine-4-carboxamide]"
14,< 10 nM,"CN(C)CC1(NC(=O)C2(c3ccc(-c4cccn4C)nc3)CCN(c3ccc(C(F)(F)F)cc3C#N)CC2)COC1 [Compound 1-262, 1-[2-cyano-4-(trifluoromethyl)phenyl]-N-{3-[(dimethylamino)methyl]oxetan-3-yl}-4-[6-(1-methyl-1H-pyrrol-2-yl)pyridin-3-yl]piperidine-4-carboxamide]"
15,< 10 nM,"CCOc1ncccc1-c1ccc(C2(NC(=O)N3CC[C@H](NC)C3)CCN(c3ccc(C(F)(F)F)cc3C#N)CC2)cn1 [Compound 2-24, (3S)—N-{1-[2-cyano-4-(trifluoromethyl)phenyl]-4-{2′-ethoxy-[2,3′-bipyridin]-5-yl}piperidin-4-yl}-3-(methylamino)pyrrolidine-1-carboxamide]"
16,< 10 nM,"COc1ccc(F)cc1-c1ncc(C2(C(=O)N[C@H]3CCN(C)C3)CCN(c3ccc(C(F)(F)F)cc3C#N)CC2)cc1F [Compound 1-195, 1-[2-cyano-4-(trifluoromethyl)phenyl]-4-[5-fluoro-6-(5-fluoro-2-methoxyphenyl)pyridin-3-yl]-N-[(3S)-1-methylpyrrolidin-3-yl]piperidine-4-carboxamide]"
17,10 to 100 nM,"CN1CC[C@H](NC(=O)C2(c3ccc(-c4ccccn4)nc3)CCN(c3ccc(C(F)(F)F)cc3C#N)CC2)C1 [Compound 1-176, 4-{[2,2′-bipyridin]-5-yl}-1-[2-cyano-4-(trifluoromethyl)phenyl]-N-[(3S)-1-methylpyrrolidin-3-yl]piperidine-4-carboxamide]"
18,< 10 nM,"CN1CC[C@H](NC(=O)C2(c3cnc(-c4cccn4C)c(F)c3)CCN(c3ccc(C(F)(F)F)cc3C#N)CC2)C1 [Compound 1-161, 1-[2-cyano-4-(trifluoromethyl)phenyl]-4-[5-fluoro-6-(1-methyl-1H-pyrrol-2-yl)pyridin-3-yl]-N-[(3S)-1-methylpyrrolidin-3-yl]piperidine-4-carboxamide]"
19,< 10 nM,"CCN(C)CCNC(=O)C1(c2ccc(-c3cccn3C)nc2)CCN(c2ccc(C(F)(F)F)cc2C#N)CC1 [Compound 1-265, 1-[2-cyano-4-(trifluoromethyl)phenyl]-N-{2-[ethyl(methyl)amino]ethyl}-4-[6-(1-methyl-1H-pyrrol-2-yl)pyridin-3-yl]piperidine-4-carboxamide]"
20,< 10 nM,"CCOc1ncccc1-c1ccc(C2(NC(=O)N3CC(NC)C3)CCN(c3ccc(C(F)(F)F)cc3C#N)CC2)cn1 [Compound 2-23, N-{1-[2-cyano-4-(trifluoromethyl)phenyl]-4-{2′-ethoxy-[2,3′-bipyridin]-5-yl}piperidin-4-yl}-3-(methylamino)azetidine-1-carboxamide]"
21,< 10 nM,"CCOc1ncccc1-c1ncc(C2(C(=O)NCCNC)CCN(c3ccc(C(F)(F)F)cc3C#N)CC2)cc1F [Compound 1-311, 1-[2-cyano-4-(trifluoromethyl)phenyl]-4-{2′-ethoxy-3-fluoro-[2,3′-bipyridin]-5-yl}-N-[2-(methylamino)ethyl]piperidine-4-carboxamide]"
22,< 10 nM,"COc1ccccc1-c1ccc(C2(NC(=O)O[C@@H]3CCN(C)C3)CCN(c3ccc(C(F)(F)F)cc3C#N)CC2)cn1 [Compound 2-54, (3R)-1-methylpyrrolidin-3-yl N-{1-[2-cyano-4-(trifluoromethyl)phenyl]-4-[6-(2-methoxyphenyl)pyridin-3-yl]piperidin-4-yl}carbamate]"
23,10 to 100 nM,"CCOc1ncccc1-c1ccc(C2(C(=O)N[C@@H]3CCN(C)C3)CCN(c3ccc(C(F)(F)F)cc3C)CC2)cc1 [Compound 1-164, 4-[4-(2-ethoxypyridin-3-yl)phenyl]-1-[2-methyl-4-(trifluoromethyl)phenyl]-N-[(3R)-1-methylpyrrolidin-3-yl]piperidine-4-carboxamide]"
24,< 10 nM,"CNCCNC(=O)C1(c2cnc(-c3ccccc3OC)c(F)c2)CCN(c2ccc(C(F)(F)F)cc2F)CC1 [Compound 1-293, 1-[2-fluoro-4-(trifluoromethyl)phenyl]-4-[5-fluoro-6-(2-methoxyphenyl)pyridin-3-yl]-N-[2-(methylamino)ethyl]piperidine-4-carboxamide]"
25,10 to 100 nM,"CCOc1ncccc1-c1ccc(C2(C(=O)N[C@@H]3CCN(C)C3)CCN(c3c(Cl)cc(C(F)(F)F)cc3C#N)CC2)cc1 [Compound 1-29, 1-[2-chloro-6-cyano-4-(trifluoromethyl)phenyl]-4-[4-(2-ethoxypyridin-3-yl)phenyl]-N-[(3R)-1-methylpyrrolidin-3-yl]piperidine-4-carboxamide]"
26,< 10 nM,"CCOc1ncccc1-c1ncc(C2(C(=O)N[C@@H]3CCN(C)C3)CCN(c3ccc(C(F)(F)F)cc3C#N)CC2)cc1F [Compound 1-108, 1-[2-cyano-4-(trifluoromethyl)phenyl]-4-{2′-ethoxy-3-fluoro-[2,3′-bipyridin]-5-yl}-N-[(3R)-1-methylpyrrolidin-3-yl]piperidine-4-carboxamide]"
27,< 10 nM,"CCOc1ccccc1-c1ccc(C2(C(=O)N[C@@H]3CCN(C)C3)CCN(c3ccc(C(F)(F)F)cc3C#N)CC2)cn1 [Compound 1-31, 1-[2-cyano-4-(trifluoromethyl)phenyl]-4-[6-(2-ethoxyphenyl)pyridin-3-yl]-N-[(3R)-1-methylpyrrolidin-3-yl]piperidine-4-carboxamide]"
